Source: publication PMC12998938, “Neutrophil store-operated Ca^2+ entry: A correctable biomarker of cystic fibrosis lung disease progression” (Journal of cystic fibrosis : official journal of the …, 2025)

Legend:
[1] = system: Staphylococcus aureus-infected mice; details: ref [21], cited from earlier work
[2] = system: Orai2; experiment: SOCE in triple knockout HEK293T cells transfected with Orai2; assay type: cell-based
Text: (§1) We hypothesized that inhibiting SOCE in CF neutrophils may reduce the secretion of neutrophil elastase and other proteins associated with CF lung disease. To validate ELD607’s specificity for Orai1 over Orai2 and Orai3, we first evaluated ELD607 function in HEK293T cells that had Orai1, Orai2 and Orai3 stably knocked out. […] Next we evaluated ELD607’s ability to inhibit SOCE in non-CF and CF neutrophils.
(§2) Supplemental figure 3. […] Dose responses of thapsigargin-induced changes in cytoplasmic Ca^2+ concentrations. These studies were performed in HEK293T where Orai1, Orai2 and Orai3 had been stably knocked down (triple knockout cells, TKO) or in TKO cells that were transiently transfected with Orai1, Orai2 or Orai3 as indicated. All data are from 7-9 replicates per data point from 3 separate experiments.

[3] = system: Orai1; details: cartoon legend; reference not given; cited from earlier work
Text: Fig. 6. Cartoon of SOCE in neutrophils in the absence (left) and presence (right) of ELD607. Left, activation of Gq-linked GPCRs by appropriate agonists (e.g. ATP) leads to formation of inositol triphosphate (IP3) and ER store Ca^2+ depletion. This in turn causes STIM1 to rapidly aggregate at ER-plasma membrane junctions where it causes Orai1 to activate and aggregate to provide a second, amplifying wave of Ca^2+ which triggers neutrophil degranulation, as well as activating other Ca^2+-dependent processes (not shown). Right, ELD607 binds to Orai1, causing it to be ubiquitinated, internalized ...

[4] = system: HEK293T Orai1, Orai2 and Orai3 triple knockout cells; experiment: SOCE in Orai1/2/3 triple knockout HEK293T cells; assay type: cell-based; details: thapsigargin, 7-9 replicates, 3 experiments
Text: as §1, §2

[5] = system: MRSA-infected mice; set-up: method as in earlier work; details: reduced lung injury, increased survival, ref [21]; cited from earlier work
[6] = system: SOCE/Orai1 in non-CF peripheral blood neutrophils; experiment: Fluo-4 Ca2+ assay, global thapsigargin-stimulated Ca2+ response (SOCE), non-CF neutrophils; assay type: cell-based, human; details: 10 μM peptide, 3 h pre-treatment, 1 μM thapsigargin, N = 10 donors
Description: (§3) Neutrophils were immediately isolated by negative selection from deidentified blood samples using an EasySep human neutrophil isolation kit (Stem Cell Technologies) as described. Cytosolic Ca^2+ was measured using Fluo-4 as described. Protein lysate from isolated blood neutrophils was characterized by liquid chromatography with tandem mass spectrometry (LC-MS/MS) as described. Degranulation products in media were quantified by Luminex assay using a custom Bio-Plex human kit (BioRad) per the manufacturer’s protocol […]. Detailed methods for all experiments and measurements are provided in an online data supplement.
(§4) Isolated neutrophils were incubated with peptide or vehicle control for 3 h. For the final hour of treatment, cells were loaded with Fluo-4 direct (Thermofisher) for 45 min at 37°C and 15 min at room temperature as described.
(§5) Fluo-4 Ca^2+ assays. Isolated neutrophils were incubated with peptide or vehicle control for 3 h. For the final hour of treatment, cells were loaded with Fluo-4 direct (Thermofisher) for 45 min at 37°C and 15 min at room temperature. For global Ca^2+ measurements, baseline fluorescent readings were made for 2 min (1 read every 30 s) using a Tecan Infinite M1000 plate reader (ex 494 em 516 nm, bandwidth 5 nm) before thapsigargin (Sigma-Aldrich) was added and the change in emission was recorded for 10 min (1 read every 30 s). To isolate phases of store operated Ca^2+ entry, cells underwent 3 rounds of centrifugation and resuspension in Ca^2+-free Ringer’s solution to remove extracellular Ca^2+. Baseline fluo-4 fluorescence was read for 2 min before cell were stimulated with thapsigargin (Tocris). Reads continued for ~5 min before 1.2 mM Ca^2+ was added to the extracellular solution and SOCE was measured for ~10 mins. For analysis, all fluo-4 fluorescence reads are normalized to baseline.

[7] = system: Orai1; experiment: SOCE in triple knockout HEK293T cells transfected with Orai1; assay type: cell-based; details: TKO + Orai1, vs wild-type HEK293T; thapsigargin; dose response; 7-9 replicates; Orai1, 2, 3 plots differ p<0.001
Text: as §1, §2

[8] = system: ER Ca2+ store release in CF neutrophils; experiment: Fluo-4 ER Ca2+ release, CF neutrophils; assay type: cell-based, human; details: 3 h pre-treatment, 1 μM thapsigargin, no extracellular Ca2+, 3 donors in triplicate, curves non-CF vs CF p<0.0001
Description: as §4
(§6) Fig. 3. ELD607 inhibits SOCE in non-CF and CF neutrophils. (A) and (B) Mean changes in fluo-4 fluorescence as a marker of cytoplasmic Ca^2+ levels in non-CF and CF neutrophils respectively before and after stimulation with 1 μM thapsigargin (Tg). Before stimulation, neutrophils were exposed to vehicle (0.1% DMSO in PBS), 10 μM ELD607 or scrambled peptide (control) for 3 h. N = 10 non-CF and 21 CF donors. Stats show ELD607 vs vehicle or scrambled peptide based on color. […] Neutrophils were stimulated with thapsigargin (1 μM) in the absence of extracellular Ca^2+ to allow the release of Ca^2+ stores to be measured. Extracellular Ca^2+ was then returned so that extracellular Ca^2+ influx could be measured. (C) Mean fold change in Fluo-4 fluorescence during ER store release in non-CF and CF neutrophils. […] (E) Mean fold change in fluo-4 fluorescence during Ca^2+ influx in non-CF and CF neutrophils. […]
(§7) SOCE has 2 phases: release of Ca^2+ from ER stores and Ca^2+ influx from the extracellular space via Ca^2+ channels such as Orai1. […] Once the stores had emptied, extracellular Ca^2+ was reintroduced and Ca^2+ influx was measured (Fig. 3C–F). […]

[9] = system: ER Ca2+ store release in non-CF neutrophils; experiment: Fluo-4 ER Ca2+ release, non-CF neutrophils; assay type: cell-based, human; details: 3 h pre-treatment, 1 μM thapsigargin, no extracellular Ca2+, 2 donors in triplicate
Description: as §4, §6, §7

[10] = system: SOCE/Orai1 in CF peripheral blood neutrophils; experiment: Fluo-4 Ca2+ assay, global thapsigargin-stimulated Ca2+ response (SOCE), CF neutrophils; assay type: cell-based, human
Description: as §3, §4, §5

## VHDIVNMLIRG [ELD607, size-optimized SPLUNC1/α6 peptidomimetic]
[1]; S. aureus-infected mice
  neutrophilia and neutrophil elastase release: reduces neutrophilia and neutrophil elastase release
[1]; mice, S. aureus, reduced lung injury, increased survival
  neutrophil influx into the lungs: reduces neutrophil influx into the lungs of mice
[2]; TKO + Orai2, thapsigargin, dose response, 7-9 replicates
  sensitivity of SOCE to ELD607: relatively insensitive
[2]; discussion summary of supplemental figure 3
  specificity for Orai1: effect on Orai2: little effect on Orai2 and Orai3
[3]
  effect on Orai1: binds to Orai1, causing it to be ubiquitinated, internalized and degraded
[4]
  effect on SOCE: no effect on SOCE
[5]
  neutrophil influx into the lungs: reduces neutrophil influx into the lungs of mice
[6]
  inhibition of SOCE (global Ca2+ response): significantly inhibited SOCE regardless of genotype
[7]
  sensitivity of SOCE to ELD607: restored the sensitivity to ELD607 seen in wild-type HEK293T cells
[8]
  IC50: 413 nM
[9]
  inhibition of ER Ca2+ release: little effect
[10]; CF, 10 μM peptide, 3 h pre-treatment, 1 μM thapsigargin, Fluo-4, N = 21 donors
  inhibition of SOCE (global Ca2+ response): significantly inhibited SOCE regardless of genotype
[10]; neutrophils (discussion of Fig. 3)
  completeness of inhibition of Ca2+ signaling: not 100% inhibited
